The values below come from ChEMBL document CHEMBL1201861, “Genomics of Drug Sensitity in Cancer screening data, Wellcome Trust Sanger Institute”.

For one assay, the system named is NCI-H524. The experiment in a line: cells. The following applies: Homo sapiens, NCI-H524. Format: functional, cell-based, Homo sapiens.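 Note: growth inhibition of human NCI-H524 cells, read out through a cell viability assay.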
For the next assay, the system named is DG-75. Nature of the assay: cells. Format: functional, cell-based, Homo sapiens. As to conditions: Homo sapiens, DG-75.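 Note: growth inhibition of DG-75 cells, read out with a cell viability assay.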
A further assay deals with IM-9. Nature of the assay: SANGER: Inhibition of human IM-9 cell growth in a cell viability assay. Format: functional, cell-based. The following applies: Homo sapiens, IM-9.
The subject of another assay is CMK. The experiment in a line: cells. The format is functional, cell-based, Homo sapiens. The following applies: Homo sapiens, CMK.
For another assay, the system named is D-336MG. Nature of the assay: cells. The format is functional, cell-based, Homo sapiens. The following applies: Homo sapiens, D-336MG.
Another assay relates to MDA-MB-134-VI. Nature of the assay: cells. Format: functional, cell-based, Homo sapiens. The following applies: Homo sapiens, MDA-MB-134-VI.
A further assay concerns LC4-1. The experiment in a line: cells. Format: functional, cell-based, Homo sapiens. As to conditions: Homo sapiens, LC4-1.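 Note: growth inhibition of LC4-1 cells, read out with a cell viability assay.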
A further assay deals with NCI-H510A. Nature of the assay: cells. The format is functional, cell-based, Homo sapiens. As to conditions: Homo sapiens, NCI-H510A.
The next assay relates to REH. Nature of the assay: cells. The format is functional, cell-based, Homo sapiens. The following applies: Homo sapiens, REH.
Another assay concerns IMR-5. The experiment in a line: cells. The format is functional, cell-based, Homo sapiens. As to conditions: Homo sapiens, IMR-5; read-out: IC50.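 Note: growth inhibition of human IMR-5 cells, read out with a cell viability assay.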
The subject of another assay is EC-GI-10. Nature of the assay: cells. Format: functional, cell-based, Homo sapiens. The following applies: Homo sapiens, EC-GI-10.
The subject of another assay is BL-41. The experiment in a line: cells. The format is functional, cell-based. As to conditions: Homo sapiens.

Each structure is given as a SMILES string.

Description for BL-41: SANGER: Inhibition of human BL-41 cell growth in a cell viability assay.
Description for CMK: SANGER: Inhibition of human CMK cell growth in a cell viability assay.
Description for D-336MG: SANGER: Inhibition of human D-336MG cell growth in a cell viability assay.
Description for DG-75: SANGER: Inhibition of human DG-75 cell growth in a cell viability assay.
Description for EC-GI-10: SANGER: Inhibition of human EC-GI-10 cell growth in a cell viability assay.
Description for IMR-5: SANGER: Inhibition of human IMR-5 cell growth in a cell viability assay.
Description for LC4-1: SANGER: Inhibition of human LC4-1 cell growth in a cell viability assay.
Description for MDA-MB-134-VI: SANGER: Inhibition of human MDA-MB-134-VI cell growth in a cell viability assay.
Description for NCI-H510A: SANGER: Inhibition of human NCI-H510A cell growth in a cell viability assay.
Description for NCI-H524: SANGER: Inhibition of human NCI-H524 cell growth in a cell viability assay.
Description for REH: SANGER: Inhibition of human REH cell growth in a cell viability assay.

Take `C[C@@H](Oc1cc(-c2cnn(C3CCNCC3)c2)cnc1N)c1c(Cl)ccc(F)c1Cl` [CRIZOTINIB]: the IC50 is more than 2000 nM with NCI-H524; more than 2000 nM with DG-75; more than 2000 nM in the assay on IM-9; 1960 nM in the assay on CMK; more than 2000 nM with D-336MG; more than 2000 nM in the assay on MDA-MB-134-VI. The IC50 with LC4-1, with NCI-H510A, in the assay with REH, in the assay on IMR-5, in the assay with EC-GI-10 and in the assay on BL-41 was more than 2000 nM throughout.
Take `Nc1ccccc1NC(=O)c1ccc(CNC(=O)OCc2cccnc2)cc1` [ENTINOSTAT]: the IC50 in the assay on NCI-H524 was 554 nM; with DG-75, 2270 nM; in the assay on IM-9, more than 5000 nM; in the assay with CMK it was 357 nM; with D-336MG, more than 5000 nM; with MDA-MB-134-VI, 1290 nM. For the same compound, the IC50 with LC4-1 is 840 nM; in the assay on NCI-H510A, 2050 nM; with REH, more than 5000 nM; in the assay on IMR-5, more than 5000 nM; in the assay on EC-GI-10, more than 5000 nM; with BL-41, 569 nM.
On to `CC(C)C[C@H](NC(=O)[C@H](Cc1ccccc1)NC(=O)c1cnccn1)B(O)O` [BORTEZOMIB], for which the IC50 in the assay on NCI-H524 was more than 20 nM; with DG-75, 18.6 nM; in the assay on IM-9 it was more than 20 nM; with CMK, 1.29 nM; in the assay with D-336MG, 0.657 nM; in the assay on MDA-MB-134-VI, more than 20 nM. In addition, the IC50 is 1.79 nM with LC4-1; more than 20 nM with NCI-H510A; more than 20 nM with REH; more than 20 nM in the assay with IMR-5; more than 20 nM in the assay with EC-GI-10; 1.25 nM in the assay with BL-41.
For `C=CC(=O)N1CCCC(Nc2nc(Nc3ccc(N(C)C(=O)CC)cc3)nc3[nH]cnc23)C1` (centres undefined), the IC50 in the assay on NCI-H524 is more than 10200 nM; in the assay with DG-75, more than 10200 nM; in the assay on IM-9, more than 10200 nM; in the assay on CMK, more than 10200 nM; in the assay on D-336MG, 8000 nM; in the assay on MDA-MB-134-VI, more than 10200 nM. The IC50 in the assay on LC4-1, with NCI-H510A, with REH, in the assay with IMR-5, in the assay with EC-GI-10 and in the assay with BL-41 was more than 10200 nM throughout.
With `NC(=O)c1cccc(-c2cc(Nc3ccc(OC(F)(F)F)cc3)ncn2)c1`, the IC50 in the assay on NCI-H524, with DG-75, in the assay on IM-9, in the assay on CMK, with D-336MG and in the assay with MDA-MB-134-VI was more than 1280 nM in each case. In addition, the IC50 in the assay with LC4-1, with NCI-H510A, in the assay with REH, in the assay on IMR-5, in the assay with EC-GI-10 and in the assay with BL-41 was more than 1280 nM throughout.
As for `COc1cc(N2CCC(N3CCN(C)CC3)CC2)ccc1Nc1ncc(Cl)c(Nc2ccccc2S(=O)(=O)C(C)C)n1` [TAE-684], the IC50 in the assay with NCI-H524 was 1640 nM; in the assay with DG-75, more than 2000 nM; with IM-9 it was more than 2000 nM; with CMK, 255 nM; with D-336MG, 662 nM; with MDA-MB-134-VI, more than 2000 nM. In addition, the IC50 was more than 2000 nM with LC4-1; more than 2000 nM in the assay with NCI-H510A; more than 2000 nM with REH; more than 2000 nM with IMR-5; more than 2000 nM in the assay on EC-GI-10; 1760 nM in the assay on BL-41.
With `Cc1cc(N2CCOCC2)cc2[nH]c(-c3c(NC[C@@H](O)c4cccc(Cl)c4)cc[nH]c3=O)nc12`, the IC50 with NCI-H524 is more than 5120 nM; in the assay with DG-75 it was more than 5120 nM; in the assay with IM-9, more than 5120 nM; in the assay with CMK it was 745 nM; in the assay on D-336MG, 872 nM; in the assay on MDA-MB-134-VI it was more than 5120 nM. The IC50 in the assay on LC4-1, in the assay on NCI-H510A, with REH, in the assay with IMR-5, in the assay with EC-GI-10 and with BL-41 was more than 5120 nM each time.

As a reminder, the IC50 is the midpoint of a concentration-inhibition curve.
